Results on 18 compounds are retold here after ChEMBL document CHEMBL6074624, “FDA-approved small molecule kinase inhibitors for cancer treatment (2001-2015): Medical indication, structural optimization, and binding mode Part I” (Bioorg Med Chem, 2024).

Series [1] deals with ACHN. Put plainly: Antiproliferative activity against human ACHN cells assessed as reduction in cell viability measured after 48 hrs by SRB assay. In kind it is functional, cell-based.
The test system of series [2] is HT-29. Put plainly: Antiproliferative activity against human HT-29 cells assessed as reduction in cell viability after 72 hrs by MTS assay. Format: functional, cell-based. Particulars: HT-29, 72 h. In general terms: Tetrazolium assays rely on reduction of a dye to a coloured formazan, in cell work by metabolically active cells.
Series [3] concerns the target Proto-oncogene tyrosine-protein kinase Src (Homo sapiens, UniProt P12931).
Series [4] has as its system K562. In words: Antiproliferative activity against human K562 cells assessed as reduction in cell growth. In kind it is functional, cell-based.
In series [5] the target is Hepatocyte growth factor receptor (Homo sapiens, UniProt P08581). In words: Inhibition of c-Met (unknown origin).
A short description of series [6]: Anticancer activity against human NCI-H1975 cells harboring EGFR L858R/T790M mutant assessed as reduction in cell viability measured after 72 hrs by MTT assay. Format: functional, cell-based. Particulars: NCI-H1975, 72 h.
Series [7] relates to PC-9. Put plainly: Antiproliferative activity against human PC-9 cells harboring EGFR L858R mutant assessed as reduction in cell viability measured after 72 hrs by SRB assay. In kind it is functional, cell-based. Particulars: PC-9, 72 h. In general terms: In SRB staining, fixed cells bind dye roughly in proportion to their protein.
In series [8] the test system is NCI-H1975. In words: Growth inhibition of human NCI-H1975 cells. Format: functional.
Series [9] has as its system PC-9. In words: Growth inhibition of human PC-9 cells. In kind it is functional.
The subject of series [10] is Calu-3. Put plainly: Growth inhibition of human Calu-3 cells. Format: functional.
Series [11] in a line: Aqueous solubility of compound at pH 7.4 by LC-MS/MS analysis. Format: physicochemical. To be noted: buffer.
The target in series [12] is Voltage-gated inwardly rectifying potassium channel KCNH2 (Homo sapiens, UniProt Q12809). In words: Inhibition of hERG. In kind it is toxicity. A general note: The hERG channel carries a current that helps repolarise heart muscle cells.
Series [13] is described as follows: Cytotoxicity against HUVEC cells assessed as reduction in cell viability after 72 hrs by CellTiter-Glo assay. Particulars: human. In kind it is toxicity, cell-based.
A short description of series [14]: AUC (0 to infinity) in mouse at 50 mg/kg, po. Format: ADME, organism-based. To be noted: in vivo.
Series [15] addresses Fibroblast growth factor receptor 1 (Homo sapiens, UniProt P11362). Put plainly: Inhibition of FGFR1 (unknown origin).
Series [16] is described as follows: Inhibition of Bcr-Abl T315Ialpha mutant (unknown origin). Further details: species or system Homo sapiens.
Series [17] has as its target T1, Vascular endothelial growth factor receptor 2 (Homo sapiens, UniProt P35968). Put plainly: Inhibition of VEGFR-2 (unknown origin) expressed in NIH3T3 cells assessed as reduction in VEGFA induced protein phosphorylation. Format: cell-based.
The nature of series [18]: Inhibition of PDGFR (unknown origin) in NIH3T3 cells. Format: cell-based, Homo sapiens.
Series [19] concerns HT-29. In words: Antitumor activity against human HT-29 cells xenografted in athymic nude mouse assessed as tumor growth inhibition at 25 mg/kg, ip administered once daily for 21 days relative to control. In kind it is functional. To be noted: HT-29, 504 h, time 21 day, read-out: TGI.
Series [20] deals with HT-29. In words: Antitumor activity against human HT-29 cells xenografted in athymic nude mouse assessed as tumor growth inhibition at 50 mg/kg, po administered once daily for 21 days relative to control. In kind it is functional. Particulars: HT-29, 504 h, time 21 day, read-out: TGI.
Series [21] deals with T1, Vascular endothelial growth factor receptor 2. In words: Binding affinity to VEGFR-2 (unknown origin) assessed as inhibition constant.
Series [22] in a line: Volume of distribution at steady state in Sprague-Dawley rat at 10 mg/kg, iv by LC-MS/MS analysis. Particulars: in vivo, read-out: Vdss. Format: ADME, organism-based.
The nature of series [23]: Clearance in Sprague-Dawley rat at 10 mg/kg, iv by LC-MS/MS analysis. Particulars: in vivo. In kind it is ADME, organism-based.
Series [24] can be described thus: Oral bioavailability in Sprague-Dawley rat at 10 mg/kg by LC-MS analysis. Format: ADME, organism-based. Particulars: in vivo.
Series [25] concerns the target Vascular endothelial growth factor receptor 1 (Homo sapiens, UniProt P17948). Put plainly: Inhibition of VEGFR-1 (unknown origin).
The subject of series [26] is Calu-6. In words: Antitumor activity against human Calu-6 cells xenografted in athymic nude mouse assessed as tumor growth inhibition at 100 mg/kg, po administered once daily for 21 days relative to control. Particulars: time 21 day. Format: functional. Further details: scale not given: the % may be the effect or the level left.
Series [27] is described as follows: Solubility in PBS at pH 7.4 incubated for 24 hrs by HPLC analysis. Format: physicochemical.
A short description of series [28]: Half life in rat at 5 mg/kg, po. Format: ADME, organism-based. Particulars: in vivo.
A short description of series [29]: Oral bioavailability in rat at 5 mg/kg measured for 24 hrs by LC-MS/MS analysis. Format: ADME, organism-based. Particulars: in vivo.
Series [30] deals with Calu-6. In words: Antitumor activity against human Calu-6 cells xenografted in athymic nude mouse assessed as tumor growth inhibition at 50 mg/kg, po administered once daily for 21 days relative to control. In kind it is functional. Particulars: Calu-6, 504 h, time 21 day, read-out: TGI.
Series [31] relates to Calu-6. Put plainly: Antitumor activity against human Calu-6 cells xenografted in athymic nude mouse assessed as tumor growth inhibition at 25 mg/kg, po administered once daily for 21 days relative to control. To be noted: Calu-6, 504 h, time 21 day, read-out: TGI. Format: functional.
Series [32] concerns Calu-6. Put plainly: Antitumor activity against human Calu-6 cells xenografted in athymic nude mouse assessed as tumor growth inhibition at 12.5 mg/kg, po administered once daily for 21 days relative to control. In kind it is functional. Particulars: Calu-6, 504 h, time 21 day, read-out: TGI.
In series [33] the target is T1, Vascular endothelial growth factor receptor 2. Put plainly: Inhibition of VEGFR2 (unknown origin) phosphorylation in HUVEC cells. Format: cell-based.
Series [34] can be described thus: Half life in Sprague-Dawley rat at 5 mg/kg, iv by LC-MS analysis. Particulars: in vivo. Format: ADME, organism-based.
The nature of series [35]: Oral bioavailability in Sprague-Dawley rat at 5 mg/kg. Format: ADME, organism-based. Particulars: in vivo.
A short description of series [36]: Half life in dog at 5 mg/kg, iv. In kind it is ADME, organism-based, Canis lupus familiaris. To be noted: in vivo.
Series [37] is described as follows: Oral bioavailability in dog at 5 mg/kg. In kind it is ADME, organism-based, Canis lupus familiaris. To be noted: in vivo.

Values after ≈ are worked out from the molar mass of the structure shown.

T1 sequence (P35968 whole entry): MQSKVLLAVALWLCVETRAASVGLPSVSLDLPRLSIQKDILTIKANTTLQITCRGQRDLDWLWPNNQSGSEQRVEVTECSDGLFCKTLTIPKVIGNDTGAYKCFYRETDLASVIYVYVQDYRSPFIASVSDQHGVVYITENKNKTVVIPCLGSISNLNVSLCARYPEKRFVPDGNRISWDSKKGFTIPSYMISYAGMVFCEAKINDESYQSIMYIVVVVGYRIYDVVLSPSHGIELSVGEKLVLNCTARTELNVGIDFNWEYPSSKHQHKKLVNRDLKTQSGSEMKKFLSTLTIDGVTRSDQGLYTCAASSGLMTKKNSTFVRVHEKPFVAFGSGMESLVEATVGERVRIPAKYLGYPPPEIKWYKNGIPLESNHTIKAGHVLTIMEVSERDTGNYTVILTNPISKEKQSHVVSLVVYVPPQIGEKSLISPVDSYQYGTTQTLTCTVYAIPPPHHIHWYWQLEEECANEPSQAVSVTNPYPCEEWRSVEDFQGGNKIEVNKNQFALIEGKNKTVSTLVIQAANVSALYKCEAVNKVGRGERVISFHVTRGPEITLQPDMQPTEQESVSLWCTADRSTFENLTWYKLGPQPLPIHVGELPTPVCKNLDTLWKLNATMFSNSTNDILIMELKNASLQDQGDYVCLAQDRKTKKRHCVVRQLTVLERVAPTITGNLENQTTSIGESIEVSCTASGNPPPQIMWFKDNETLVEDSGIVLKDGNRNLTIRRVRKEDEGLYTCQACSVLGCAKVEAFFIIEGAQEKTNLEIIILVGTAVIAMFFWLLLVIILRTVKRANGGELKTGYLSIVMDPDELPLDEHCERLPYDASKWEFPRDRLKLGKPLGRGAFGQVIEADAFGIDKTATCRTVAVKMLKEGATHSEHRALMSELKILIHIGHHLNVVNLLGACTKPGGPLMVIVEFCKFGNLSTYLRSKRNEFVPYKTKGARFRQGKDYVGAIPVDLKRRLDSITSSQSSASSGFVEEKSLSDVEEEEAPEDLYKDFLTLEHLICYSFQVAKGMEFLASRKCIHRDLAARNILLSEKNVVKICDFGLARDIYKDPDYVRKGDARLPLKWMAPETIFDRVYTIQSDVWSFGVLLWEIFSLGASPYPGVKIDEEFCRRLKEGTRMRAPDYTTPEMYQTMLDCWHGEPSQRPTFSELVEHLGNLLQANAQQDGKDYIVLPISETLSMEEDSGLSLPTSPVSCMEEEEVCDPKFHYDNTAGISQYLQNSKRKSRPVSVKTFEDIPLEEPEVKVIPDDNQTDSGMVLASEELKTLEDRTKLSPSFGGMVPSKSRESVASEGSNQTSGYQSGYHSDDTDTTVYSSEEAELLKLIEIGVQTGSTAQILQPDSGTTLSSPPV
Sequence of Proto-oncogene tyrosine-protein kinase Src (P12931 2-536 limits assumed): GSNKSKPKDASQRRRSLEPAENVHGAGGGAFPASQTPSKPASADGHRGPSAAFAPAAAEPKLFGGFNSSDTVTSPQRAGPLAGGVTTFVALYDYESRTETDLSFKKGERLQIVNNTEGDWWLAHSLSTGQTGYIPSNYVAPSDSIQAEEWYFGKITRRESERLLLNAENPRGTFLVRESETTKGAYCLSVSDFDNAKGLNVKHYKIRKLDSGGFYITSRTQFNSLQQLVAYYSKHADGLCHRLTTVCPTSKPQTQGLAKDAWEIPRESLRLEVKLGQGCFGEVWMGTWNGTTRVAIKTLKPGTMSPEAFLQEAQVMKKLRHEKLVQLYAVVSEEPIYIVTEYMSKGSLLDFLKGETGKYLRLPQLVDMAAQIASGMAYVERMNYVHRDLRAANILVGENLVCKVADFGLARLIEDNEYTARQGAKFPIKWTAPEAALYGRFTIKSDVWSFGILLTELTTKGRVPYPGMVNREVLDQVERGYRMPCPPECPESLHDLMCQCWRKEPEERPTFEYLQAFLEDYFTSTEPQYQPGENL
Sequence of Vascular endothelial growth factor receptor 1 (P17948 whole entry): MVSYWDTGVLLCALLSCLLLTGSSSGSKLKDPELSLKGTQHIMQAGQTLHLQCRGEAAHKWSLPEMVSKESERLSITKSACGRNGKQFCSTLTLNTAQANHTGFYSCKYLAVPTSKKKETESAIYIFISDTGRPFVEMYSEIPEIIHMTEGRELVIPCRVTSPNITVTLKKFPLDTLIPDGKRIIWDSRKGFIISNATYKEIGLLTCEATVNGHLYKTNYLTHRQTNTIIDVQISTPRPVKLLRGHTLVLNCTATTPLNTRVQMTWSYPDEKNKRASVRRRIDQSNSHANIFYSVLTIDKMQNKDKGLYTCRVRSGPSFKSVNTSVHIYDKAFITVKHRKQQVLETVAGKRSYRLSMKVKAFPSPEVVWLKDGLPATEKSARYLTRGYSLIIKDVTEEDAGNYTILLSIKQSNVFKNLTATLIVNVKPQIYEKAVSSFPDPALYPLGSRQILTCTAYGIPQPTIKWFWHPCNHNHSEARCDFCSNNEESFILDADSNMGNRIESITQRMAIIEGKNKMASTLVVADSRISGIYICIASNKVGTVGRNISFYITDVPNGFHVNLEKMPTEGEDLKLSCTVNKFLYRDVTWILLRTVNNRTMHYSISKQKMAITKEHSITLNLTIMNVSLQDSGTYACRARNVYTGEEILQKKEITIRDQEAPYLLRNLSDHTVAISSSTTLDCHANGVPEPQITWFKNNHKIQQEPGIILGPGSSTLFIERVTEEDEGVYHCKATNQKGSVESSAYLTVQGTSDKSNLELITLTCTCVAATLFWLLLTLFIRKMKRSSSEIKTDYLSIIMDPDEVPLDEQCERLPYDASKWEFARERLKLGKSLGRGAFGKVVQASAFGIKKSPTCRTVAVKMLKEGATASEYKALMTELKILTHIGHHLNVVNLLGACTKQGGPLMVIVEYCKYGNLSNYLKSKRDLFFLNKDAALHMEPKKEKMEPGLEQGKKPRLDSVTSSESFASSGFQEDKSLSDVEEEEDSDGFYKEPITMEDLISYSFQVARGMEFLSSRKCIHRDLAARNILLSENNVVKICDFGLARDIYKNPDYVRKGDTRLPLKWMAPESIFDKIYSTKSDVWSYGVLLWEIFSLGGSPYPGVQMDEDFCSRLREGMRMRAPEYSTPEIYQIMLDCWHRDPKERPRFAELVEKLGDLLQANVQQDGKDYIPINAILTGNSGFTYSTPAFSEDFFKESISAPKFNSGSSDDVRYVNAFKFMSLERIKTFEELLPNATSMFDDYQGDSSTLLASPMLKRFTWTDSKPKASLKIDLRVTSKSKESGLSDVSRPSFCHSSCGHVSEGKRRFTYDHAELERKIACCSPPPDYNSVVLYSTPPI
Sequence of Hepatocyte growth factor receptor (P08581 whole entry): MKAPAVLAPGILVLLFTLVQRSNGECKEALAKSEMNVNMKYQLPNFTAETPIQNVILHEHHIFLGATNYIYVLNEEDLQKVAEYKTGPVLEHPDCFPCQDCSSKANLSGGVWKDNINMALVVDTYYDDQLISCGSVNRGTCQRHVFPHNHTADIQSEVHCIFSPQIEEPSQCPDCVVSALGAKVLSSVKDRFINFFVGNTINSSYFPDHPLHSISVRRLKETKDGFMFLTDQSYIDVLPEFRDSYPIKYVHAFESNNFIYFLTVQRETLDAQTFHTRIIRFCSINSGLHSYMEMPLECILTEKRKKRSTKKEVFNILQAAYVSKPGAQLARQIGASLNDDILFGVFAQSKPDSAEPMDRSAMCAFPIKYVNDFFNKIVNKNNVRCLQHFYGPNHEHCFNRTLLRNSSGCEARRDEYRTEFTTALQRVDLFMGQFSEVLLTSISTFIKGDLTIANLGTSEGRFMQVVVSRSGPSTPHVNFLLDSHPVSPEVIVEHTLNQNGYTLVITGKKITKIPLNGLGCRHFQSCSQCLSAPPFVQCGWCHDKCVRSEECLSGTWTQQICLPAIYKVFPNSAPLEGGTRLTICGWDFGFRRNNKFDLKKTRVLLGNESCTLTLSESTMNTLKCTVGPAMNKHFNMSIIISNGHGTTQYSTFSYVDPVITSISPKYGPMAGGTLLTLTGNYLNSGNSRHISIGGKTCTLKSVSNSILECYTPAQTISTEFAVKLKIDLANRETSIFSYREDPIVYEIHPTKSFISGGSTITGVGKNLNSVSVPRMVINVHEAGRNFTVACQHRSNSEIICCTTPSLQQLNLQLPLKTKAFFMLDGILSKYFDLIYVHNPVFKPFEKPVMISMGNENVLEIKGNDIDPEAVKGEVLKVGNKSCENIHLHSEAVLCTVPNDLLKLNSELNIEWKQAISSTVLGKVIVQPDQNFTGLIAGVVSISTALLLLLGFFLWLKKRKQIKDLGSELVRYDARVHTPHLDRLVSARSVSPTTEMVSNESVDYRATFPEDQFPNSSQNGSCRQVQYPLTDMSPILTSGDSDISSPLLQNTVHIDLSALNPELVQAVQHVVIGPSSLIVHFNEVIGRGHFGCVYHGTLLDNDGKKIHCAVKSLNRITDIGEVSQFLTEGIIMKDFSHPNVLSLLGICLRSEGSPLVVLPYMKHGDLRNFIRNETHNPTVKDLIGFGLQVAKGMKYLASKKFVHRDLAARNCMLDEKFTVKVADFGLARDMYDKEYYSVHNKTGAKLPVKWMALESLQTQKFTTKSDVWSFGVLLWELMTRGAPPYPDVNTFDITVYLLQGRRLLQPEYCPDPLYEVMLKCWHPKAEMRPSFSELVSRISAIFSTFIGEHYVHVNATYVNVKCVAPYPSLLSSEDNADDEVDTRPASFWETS

In general, IC50 refers to the midpoint of a concentration-inhibition curve. As to `Cn1c(=O)cc(Nc2ccc(Cl)cc2)c2c(=O)n(-c3ccccc3)c(=O)n(-c3ccccc3)c21`, the IC50 was found to be 4800 nM in series [1] and 990 nM in series [2].
On to `Cn1c(=O)cc(Nc2ccc(I)cc2F)c2c(=O)n(C3CC3)c(=O)n(-c3ccccc3)c21`, for which the IC50 in series [1] was determined as 13 nM; in series [2], 1.5 nM.
`Cc1ccc(NC(=O)c2cc(C(C)(C)C)on2)cc1/C=C/n1cnc2c(NC3CC3)ncnc21` came in with an IC50 in [3] of 15500 nM.
Turning to `COc1cc2nccc(Nc3ccc(NC(=S)NC(=O)Cc4ccccc4)cc3F)c2cc1OC`, the IC50 came out at 20 nM in series [4] and 121 nM in [5].
In general, GI50 refers to the concentration at which growth is held to half of that of the control. A word on the solubility: it is how much of the substance goes into solution per volume. On to `C=CC(=O)Nc1cc(Nc2ncc(Cl)c(-c3cnn4ccccc34)n2)c(OC)cc1C1CC(N(C)C)C1` (centres undefined), for which the IC50 in series [6] was 4 nM; in [7], 21 nM; in series [12], 4000 nM. Besides, the GI50 is 17 nM in [8], 19 nM in [9] and 846 nM in series [10]. This compound yielded a solubility in series [11] of 43 µM (≈ 22.3 µg/mL).
As to `Cc1ccc(NC(=O)c2cc(C(F)(F)F)ccn2)cc1C#Cn1cnc2c(NC3CC3)ncnc21`, the half-maximal inhibitory concentration (IC50) in [3] worked out at 524 nM.
Take `Cn1c(Nc2ccccc2)c2c(=O)n(C3CC3)c(=O)n(-c3ccc(Br)cc3)c2cc1=O`: the IC50 was under 3000 nM in series [1] and over 1000 nM in series [2].
As usually defined, the AUC(0-inf) is the area under the concentration-time curve extrapolated to infinity. For `COc1cc(-c2ccc3[nH]nc(/C=C/c4ccc(OC)c(OC)c4)c3c2)ccc1O`, the IC50 at 72 h in [13] turned out to be 18 nM. This compound registered an AUC(0-inf) in series [14] of 300 ng·h/mL.
Turning to `COc1cc(/C=C/c2n[nH]c3ccccc23)ccc1O`, in [15], the half-inhibitory concentration (IC50) was found to be 1900 nM.
In series [3], `Cc1ccc(NC(=O)c2cc(C(F)(F)F)ccn2)cc1/C=C/n1cnc2c(NC3CC3)ncnc21` came in with an IC50 of 14100 nM.
For `Cc1ccc(NC(=O)c2cc(C(C)(C)C)on2)cc1C#Cn1cnc2c(NC3CC3)ncnc21`, the half-maximal inhibitory concentration (IC50) in [16] stood at 359 nM.
On to `Cc1c[nH]c(/C=C2\C(=O)Nc3ccccc32)c1CCC(=O)O`, for which the IC50 amounted to 400 nM in series [17] and 60900 nM in series [18].
For the compound `COc1cc(Nc2c(C#N)cnc3cc(OCCCN4CCN(C)CC4)c(OC)cc23)c(Cl)cc1Cl` [BOSUTINIB], the inhibition in vivo at 25 mg/kg in [19] was found to be 44%. The inhibition in vivo at 50 mg/kg in [20] is 35%.
As a reminder, the Ki is the dissociation constant of the complex between target and ligand, obtained from inhibition or displacement. As for `COc1cc(/C=C/c2cc(/C=C/c3ccc(O)c(OC)c3)[nH]n2)ccc1O` [CURCUMIN PYRAZOLE], the Ki in series [21] turned out to be 5100 nM.
One may read the clearance as a measure of how efficiently the substance is removed, as volume per time. As usually defined, the bioavailability is dose-corrected exposure relative to a reference, in per cent. Turning to `Cc1nc(Nc2ncc(C(=O)Nc3c(C)cccc3Cl)s2)cc(N2CCN(CCO)CC2)n1` [DASATINIB ANHYDROUS], the Vd in series [22] was determined as 6.3 L/kg. For the same compound, the clearance in series [23] was determined as 26.4 mL/min/kg. In series [24], this compound registered a bioavailability of 27%.
`COc1cc2nccc(Oc3ccc(NC(=O)NC4CC4)c(Cl)c3)c2cc1C(N)=O` [LENVATINIB] displayed an IC50 in [25] of 3.4 nM.
Usually half-life stands for the time needed for the level to fall by half in the phase considered. As for `COc1cc2/c(=N/c3ccc(Br)cc3F)nc[nH]c2cc1OCC1CCN(C)CC1` [VANDETANIB], the Activity in series [26] was 79%. Moreover, the concentration in solution in series [27] (solubility at 24 h) came to 330 µM (≈ 157 µg/mL). The compound further had a half-life in series [28] of 15 h. For the same compound, the bioavailability in series [29] is over 50%. The inhibition in vivo at 50 mg/kg in series [30] is 67%. Moreover, the inhibition in vivo at 25 mg/kg in series [31] amounted to 51%. In addition, the inhibition in vivo at 12.5 mg/kg in [32] was found to be 36%.
The compound `COc1cc2c(Nc3ccc(Br)cc3F)ncnc2cc1OCCn1ccnn1` [ZD-4190 FREE BASE] returned an IC50 in series [33] of 50 nM. Also, in [26], the Activity was 75%. In addition, the half-life is 1.3 h in series [34] and 1.1 h in series [36]. For the same compound, the bioavailability in series [35] is over 80%; in series [37], under 5%.
